Assay results reported in patent publication US6780853B1, “Neuroactive steroids of the androstane and pregnane series” (priority 1995, dated 2004).

Tests used:
[1] = target: GABA receptor complex (GRC); assay: [35S]TBPS binding in rat cerebral cortex P2 homogenate; settings: for IC50: concentration to inhibit 50% of control [35S]TBPS binding, 2 nM [35S]TBPS; for IMAX (maximum inhibition): maximum inhibition of [35S]TBPS binding
How it was run: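 Male Sprague-Dawley rat cortical P2 homogenate (0.5 mg protein) incubated with 2 nM [35S]TBPS in 50 mM Na/K phosphate pH 7.4, 200 mM NaCl, with GABA plus (+)bicuculline, 90 min at 25 °C. Filter-bound radioactivity counted; non-specific binding with […]; IC50 and maximal inhibition by nonlinear regression.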

[2] = system: time spent on the open-arms; assay: Elevated plus-maze test; assay type: in vivo, N.I.H. Swiss-Webster mice; settings: IP, 50% hpbcd, 10 mg/kg
From the text: The theoretical basis for the elevated plus-maze test is similar to that of the fight/dark transition test. As it was described previously by Pellow et al. J. Neurosci. Meth. 14:149-167 (1985)), the elevated plus-maze apparatus is designed to utilize the mice's natural aversion to open spaces. The apparatus consists of two open-arms and two enclosed-arms. The elevated plus-maze test allows for two measures of anxiety, the number of entries into the open-arms and the time spent on the open-arms, both expressed as a percentage of the total number of entries and time spent in/on both the open-arms and enclosed-arms.
Male N.I.H Swiss-Webster mice (Harlan, Indianapolis, Ind.) weighing 15-20 g were housed four per cage in polyethylene cages with sawdust bedding. The colony room was environmentally controlled (22° C.) with a 12 hr light/dark cycle (0600-1800 hr). Food and water were available ad libitum, except during testing. The experiments were run from 0700-1500 hr and groups were counterbalanced for time of day effects. Mice were only administered drug or vehicle once.
The method used was previously described (Lister, Psychopharmacol. 92:180-185 (1987)). The apparatus included two open arms perpendicular to two enclosed arms elevated 50 cm from the floor. Each arm was 50 cm long and the walls of the enclosed arms were 40 cm tall. The maze was made completely of black plexiglass. Incandescent 200 W light bulbs were above each of the open arms to produce a strong contrast between the open arms and the enclosed arms.
[…] Swiss-Webster mice were placed in the center of the plus-maze facing an open arm. During the 5 min test period, the number of entries onto the open arms and the enclosed arms, and the time spent in the open arms and enclosed arms were measured. All four paws had to be within an arm for the dependent variable to be measured. Therefore, the time spent in the center of the maze is not counted, so the total time spent in the open arms and the enclosed arms may not equal 5 min.

loss-of-righting reflex = assay: Anesthetic activity, loss-of-righting reflex; assay type: in vivo, mice; settings: iv
Procedure: The compounds of and used in the invention can also be used for anesthetic indications at high doses. However, the preferred route of administration to induce anesthesia is intravenous (i.v.) administration. In animals, a drug's anesthetic properties is measured by the drug's ability to produce a loss-of-righting reflex. The loss-of-righting reflex is defined as the inability of an animal to right itself within 30 seconds when placed on its back. Mice were administered drug i.v. in the lateral tail vein. Following administration, mice were placed on their backs and observed for loss-of-righting reflex.

Progesterone Receptors = assay: Inhibition of 3H-Progesterone Binding to the Bovine Uteral Progesterone Receptors; settings: competitor 10^−6M; 3H-progesterone 0.15 nM
[3] = target: T1, Mineralocorticoid Receptors (Rattus norvegicus, UniProt P22199); assay: Inhibition of 3H-Aldosterone Binding to Hippocampal Mineralocorticoid Receptors; settings: competitor 10^−6M; 3 nM 3H-aldosterone, RU28362 0.5 μM
T1 construct: To isolate the mineralocorticoid receptor, brain cytosol fractions were prepared; from tissue; host or cells: brain (hippocampal) cytosol of adrenalectomized rats
T1 sequence (P22199 1-981): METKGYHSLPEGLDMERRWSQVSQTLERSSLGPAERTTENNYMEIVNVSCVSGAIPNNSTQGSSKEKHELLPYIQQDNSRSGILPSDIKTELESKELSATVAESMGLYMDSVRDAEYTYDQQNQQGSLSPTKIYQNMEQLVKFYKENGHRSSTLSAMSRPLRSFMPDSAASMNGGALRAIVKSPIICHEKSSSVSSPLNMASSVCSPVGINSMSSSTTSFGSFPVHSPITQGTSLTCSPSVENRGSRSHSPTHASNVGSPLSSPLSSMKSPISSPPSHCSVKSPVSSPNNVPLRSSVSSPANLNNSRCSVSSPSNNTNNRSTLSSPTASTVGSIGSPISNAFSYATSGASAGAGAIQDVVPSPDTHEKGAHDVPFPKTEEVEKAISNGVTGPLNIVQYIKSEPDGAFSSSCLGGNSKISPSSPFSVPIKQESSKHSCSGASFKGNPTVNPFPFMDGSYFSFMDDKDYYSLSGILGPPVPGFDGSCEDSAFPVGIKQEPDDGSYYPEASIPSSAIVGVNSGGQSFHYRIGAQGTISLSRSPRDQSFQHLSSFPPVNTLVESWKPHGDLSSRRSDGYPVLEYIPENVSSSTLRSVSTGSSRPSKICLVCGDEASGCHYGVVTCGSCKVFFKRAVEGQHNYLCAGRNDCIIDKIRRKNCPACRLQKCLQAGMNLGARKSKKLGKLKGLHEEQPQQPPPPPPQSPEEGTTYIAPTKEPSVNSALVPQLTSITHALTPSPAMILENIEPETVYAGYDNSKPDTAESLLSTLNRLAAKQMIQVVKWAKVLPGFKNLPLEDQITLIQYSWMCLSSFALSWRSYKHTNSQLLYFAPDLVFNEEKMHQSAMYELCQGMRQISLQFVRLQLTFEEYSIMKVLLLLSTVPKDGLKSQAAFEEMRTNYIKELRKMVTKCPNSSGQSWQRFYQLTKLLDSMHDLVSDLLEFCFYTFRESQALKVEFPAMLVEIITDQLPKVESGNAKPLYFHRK
Procedure: (§1) Various hormonal activities of representative neuroactive steroids were further studied through testing their potential estrogenic, mineralocorticoid and glucocorticoid activities. These activities were analyzed by monitoring the ability of the compounds to inhibit binding of the steroid hormones to their respective hormone receptors.
In Table 4, rats were adrenalectornized 3 days prior to sacrifice.

Estrogen Receptors = target: T2, Estrogen Receptors (Bos taurus, UniProt P49884); assay: Inhibition of 3H-Estradiol Binding to Bovine Uteral Estrogen Receptors; settings: competitor 10^−6M; 3H-estradiol 0.15 nM
T2 construct: from tissue; host or cells: bovine uterus cytosol
T2 sequence (P49884 1-596): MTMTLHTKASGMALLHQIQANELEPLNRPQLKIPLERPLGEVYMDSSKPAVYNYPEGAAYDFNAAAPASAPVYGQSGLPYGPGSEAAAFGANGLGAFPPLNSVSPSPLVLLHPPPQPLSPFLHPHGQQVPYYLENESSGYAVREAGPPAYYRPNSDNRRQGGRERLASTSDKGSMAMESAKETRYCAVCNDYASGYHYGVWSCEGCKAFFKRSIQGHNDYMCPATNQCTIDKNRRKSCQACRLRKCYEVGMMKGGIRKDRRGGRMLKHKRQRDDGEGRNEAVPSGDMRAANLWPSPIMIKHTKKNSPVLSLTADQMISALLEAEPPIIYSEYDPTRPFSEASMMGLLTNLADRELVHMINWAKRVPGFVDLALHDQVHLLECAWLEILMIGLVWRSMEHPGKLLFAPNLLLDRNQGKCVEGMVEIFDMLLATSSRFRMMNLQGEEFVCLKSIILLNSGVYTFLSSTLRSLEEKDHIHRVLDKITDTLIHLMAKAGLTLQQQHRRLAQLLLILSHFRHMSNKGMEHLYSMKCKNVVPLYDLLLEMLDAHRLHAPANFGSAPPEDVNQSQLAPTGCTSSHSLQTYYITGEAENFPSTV
Procedure: as §1

[4] = system: metrazol induced convulsions; assay: Antimetrazol activity in mice; assay type: in vivo; settings: IP, 50% hpbcd, 10 mg/kg, 10 min before metrazol 85 mg/kg
Procedure: Experiments were also performed to determine the physiological relevance of neuroactive steroid and GABA receptor interactions by assessing the ability of compounds of the present invention to prevent metrazol induced convulsions in mice. Mice were injected with various doses of the test compounds of the invention, 10 minutes prior to the injection of metrazol. The time to onset of myoclonus (presence of forelimb clonic activity) induced by metrazol was determined by observing each mouse for a period of 30 minutes. In control mice, metrazol (85 mg/kg) will induce convulsion in 95% of the animals.
The anticonvulsant tests are similar to that described above.

Molecule	melting point [°C]	IC50 [1] [µM]	IMAX (maximum inhibition) [1] [%]	Plus-Maze (% Control), time spent on the open-arms [2] [% Control]	% of Inhibition (Progesterone Receptors) [%]	% Protected [4] [%]	also measured
C#CC1(O)CCC2C(CCC3C2CCC2(C)C(OC)CCC32)C1 (stereo not drawn) [3β-Ethynyl-3α-hydroxy-17β-methoxy-19-nor-5β-androstane]	152 to 154	0.056	107	158	–	–	Loss-of-Righting Reflex (%) (loss-of-righting reflex; 50% hpbcd, 10 mg/kg): 100%
CC(=O)[C@H]1CC[C@H]2[C@@H]3CC[C@H]4C[C@H](O)CC[C@]4(C)[C@H]3C(=O)C[C@]12C [3α-Hydroxy-5α-pregnan-11,20-dione, reference compound]	–	–	–	–	–	–	Loss-of-Righting Reflex (%) (loss-of-righting reflex; 50% hpbcd, 10 mg/kg): 37.5%
5α-pregnan-3β,20-trimethyl-3α,20-diol	–	–	–	–	8	–	% of Inhibition [3]: 0%; % of Inhibition (Estrogen Receptors): 0%
C[C@]12CC[C@@H](O)C[C@@H]1CC[C@@H]1[C@@H]2CC[C@]2(C)[C@@H](C(=O)CO)CC[C@@H]12 [3α,21-Dihydroxy-5α-pregnan-20-one, reference compound]	–	0.076	100	–	13	–	–
CC(=O)[C@H]1CC[C@H]2[C@@H]3CC[C@H]4C[C@H](O)CC[C@]4(C)[C@H]3CC[C@]12C [3α-Hydroxy-5α-pregnan-20-one, reference compound]	–	0.037	95	–	14	–	–
C[C@]12CC[C@@H](O)C[C@H]1CC[C@@H]1[C@@H]2CC[C@]2(C)[C@@H](C(=O)CSCCO)CC[C@@H]12 [3α-hydroxy-21-hydroxyethylthio-5β-pregnan-20-one]	150 to 152	0.141	71	–	–	12.5	–
C[C@]12CC[C@@H](O)C[C@@H]1CC[C@@H]1[C@@H]2CC[C@]2(C)[C@@H](C(=O)CSc3ccncc3)CC[C@@H]12 [3α-hydroxy-21-(pyrid-4-ylthio)-5α-pregnan-20-one]	154 to 156	0.023	98	148	–	62.5	–
CC(O)C1CCC2C3CCC4CC(O)CCC4(C)C3CCC12C (stereo not drawn) [5β-pregnan-3α,20α-diol]	–	–	–	–	0	–	% of Inhibition [3]: 0%; % of Inhibition (Estrogen Receptors): 8%
COC1CCC2C3CCC4CC(O)(C(F)(F)F)CCC4(C)C3CCC12C (stereo not drawn) [3α-Hydroxy-17β-methoxy-3β-trifluoromethyl-5β-androstane] [3β-trifluoromethyl-3α-hydroxy-17β-methoxy-5β-androstane]	122 to 127	0.216	103	115	–	37.5	Loss-of-Righting Reflex (%) (loss-of-righting reflex; 10% hpbcd, 20 mg/kg): 37.5%
C=C(C)C#CC1(O)CCC2(C)C(CCC3C2CCC2(C)C(OC)CCC32)C1 (stereo not drawn) [3α-Hydroxy-17β-methoxy-3β-(3′-methylbut-3′-en-1′-ynyl)-5β-androstane]	–	–	–	–	–	87.5	Loss-of-Righting Reflex (%) (loss-of-righting reflex; 50% hpbcd, 10 mg/kg): 100%
COC1CCC2C3CCC4CC(O)(C(F)(F)F)CCC4C3CCC12C (stereo not drawn) [3α-Hydroxy-17β-methoxy-3β-trifluoromethyl-19-nor-5β-androstane]	40 to 42	0.093	115	107	–	–	Loss-of-Righting Reflex (%) (loss-of-righting reflex; 50% hpbcd, 10 mg/kg): 62.5%
CCC(=O)[C@@]1(C)CC[C@H]2[C@@H]3CCC4=CC(=O)CCC4=C3CC[C@@]21C [Example R5020]	–	–	–	–	100	–	–
CC(=O)[C@H]1CC[C@H]2[C@@H]3CC[C@@H]4C[C@H](O)CC[C@]4(C)[C@H]3CC[C@]12C [5β-pregnan-3α-of-20-one, 5β-pregnan-3α-ol-20 -one]	–	–	–	–	9	–	–
COC1CCC2C3CCC4CC(O)(C#Cc5ccc(C(C)=O)cc5)CCC4(C)C3CCC12C (stereo not drawn) [3β-(4′-acetylphenylethynyl)-3α-hydroxy-17β-methoxy-5β-androstane]	189 to 191	0.02	104	129	–	25	–
C[C@H](O)[C@H]1CC[C@H]2[C@@H]3CC[C@H]4C[C@H](O)CC[C@]4(C)[C@H]3CC[C@]12C [5α-pregnan-3α,20-diol, 5α-pregnan-3α,20α-diol]	–	–	–	–	6	–	% of Inhibition [3]: 0%; % of Inhibition (Estrogen Receptors): 0%
